What was measured:
[1] = tested on: NALM-6 (B-lineage ALL); experiment: MTT cytotoxicity assay, NALM-6; format: cell-based; conditions: Homo sapiens, NALM-6 cells, 24-36 hours incubation
Method: (§1) The cytotoxicity of compound II was evaluated against two acute lymphoblastic leukemia (ALL) cell lines, NALM-6 (B-lineage ALL), and MOLT-3 (T-lineage ALL) using MTT (3-[4,5-dimethylthiazol-2-yl]-2,5-diphenyl tetrazolium bromide) assay (Boehringer Mannheim Corp., Indianapolis, Ind. The human leukemic cell lines (NALM-6, and MOLT-3) were obtained from the American Type Culture Collection and maintained as a continuous cell line in Dulbecco's modified Eagles's medium supplemented with 10% fetal bovine serum and antibiotics. Briefly, exponentially growing cells were seeded into a 96-well plate at a density of 2.5×10^4 cells/well and incubated for 36 hours at 37° C. prior to exposure to the compound. On the day of treatment, culture medium was carefully aspirated from the wells and replaced with fresh medium containing compound II at concentrations ranging from 0.1 to 250 μM. Triplicate wells were used for each treatment.
(§2) The cells were incubated with compound II for 24-36 hours at 37° C. in a humidified 5% CO2 atmosphere. […] The absorbance of each well was measured in a microplate reader (Labsystems) at 540 nm and a reference wavelength of 690 nm. […] The percent survival was calculated using the formula: [formula]
(§3) The IC50 values for cytotoxic activity were determined using Graph-pad Prism software, version 2.0 (San Diego, Calif., USA) and are shown below in Table 1.

[2] = tested on: MOLT-3 (T-lineage ALL); experiment: MTT cytotoxicity assay, MOLT-3; format: cell-based; conditions: Homo sapiens, MOLT-3 cells, 24-36 hours incubation
Method: as §1, §2, §3

O=[As](O)(O)c1ccc(N=Nc2ccc(Nc3nc(C(Cl)(Cl)Cl)nc4ccccc34)cc2)cc1 [Compound II, 2-Trichloromethyl-4-4-[4′-(4″-phenylazo)phenylarsonic Acid]-aminoquinazoline]
IC50 [1]: 1.1 ± 0.5 µM
IC50 [2]: 2 ± 0.8 µM
melting point: > 300 °C

From patent publication US6686344B1, “Organic-arsonic compounds” (Paker Hughes Institute, priority 2003, dated 2004)
